Structures are written as SMILES.

Assay [1] can be described thus: Inhibitory activity against beta-glucosidase in almond at pH 5.5. Also on record: species or system Prunus dulcis.
Assay [2] in a line: Inhibitory activity against beta-glucosidase in almond at pH 6.8. Also on record: species or system Prunus dulcis.
In assay [3] the target is T1, Beta-galactosidase (Bos taurus, UniProt Q58D55).
T1 sequence (Q58D55 whole entry): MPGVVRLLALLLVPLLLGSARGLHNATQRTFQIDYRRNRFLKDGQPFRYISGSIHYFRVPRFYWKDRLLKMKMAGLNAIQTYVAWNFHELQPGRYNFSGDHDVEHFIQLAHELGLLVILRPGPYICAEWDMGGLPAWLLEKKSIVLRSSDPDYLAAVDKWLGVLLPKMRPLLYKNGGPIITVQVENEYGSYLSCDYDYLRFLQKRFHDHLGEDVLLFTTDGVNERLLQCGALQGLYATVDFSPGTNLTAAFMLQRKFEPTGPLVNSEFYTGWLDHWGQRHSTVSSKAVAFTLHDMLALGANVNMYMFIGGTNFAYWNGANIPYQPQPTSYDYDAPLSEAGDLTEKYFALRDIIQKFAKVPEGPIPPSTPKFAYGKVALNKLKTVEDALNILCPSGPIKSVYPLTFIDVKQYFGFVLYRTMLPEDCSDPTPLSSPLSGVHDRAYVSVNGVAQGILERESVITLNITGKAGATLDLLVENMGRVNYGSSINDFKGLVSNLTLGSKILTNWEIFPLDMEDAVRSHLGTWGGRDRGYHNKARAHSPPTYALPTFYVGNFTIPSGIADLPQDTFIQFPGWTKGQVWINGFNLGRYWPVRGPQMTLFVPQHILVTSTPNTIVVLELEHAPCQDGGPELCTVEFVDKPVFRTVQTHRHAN
The experiment in a line: Inhibitory activity against beta-galactosidase in bovine liver. Type of assay: tissue-based.

Assay [4] can be described thus: Inhibitory activity against beta-glucosidase in almond. Also on record: species or system Prunus dulcis.

Usually Ki stands for a measure of affinity in units of concentration, obtained from inhibition or displacement. A higher Ki goes with lower affinity. By IC50 is commonly meant the concentration that inhibits the measured activity by half. Read a high IC50 as lower potency. For `C[C@@H]1CC(NCCc2ccccc2)[C@@H](O)[C@@H](O)[C@@H]1O` (stereo in doubt), the results for the Ki in assay [1], in assay [2] and in assay [4] were 0.39 µM, 0.057 µM and 0.057 µM, respectively. Further, the values for the 50% inhibitory concentration (IC50) in assay [3] and in assay [4] were 5.7 µM and 0.38 µM, respectively.
As to `CCCCCCCCN[C@H]1CC(C)[C@@H](O)C(O)[C@@H]1O` (stereo partly drawn), the IC50 in assay [3] is 3.7 µM; in assay [4], 14.7 µM.
In assay [3], `CCCCCCCCCCNC1CC(C)C(O)C(O)C1O` (stereo not drawn) registered a 50% inhibitory concentration (IC50) of 0.2 µM and an inhibition constant Ki of 0.009 µM. In assay [4], this compound showed an IC50 of 2 µM and a Ki of 0.4 µM.
In the case of `CCCCCCNC1CC(C)C(O)C(O)C1O` (stereo not drawn), the IC50 in assay [3] worked out at 3.7 µM; in assay [4], 0.73 µM.
`C[C@@H]1CC(NCCc2ccccc2)[C@@H](O)[C@@H](O)[C@@H]1O` (stereo in doubt; 9e (D)) showed a Ki in assay [2] of 0.11 µM.
In the case of `CCCCCCCCCCCCN[C@H]1CC(C)[C@@H](O)C(O)[C@@H]1O` (stereo partly drawn), the IC50 in assay [3] was 3 µM; in assay [4], 3.6 µM.
With `CCCCCCCCNC1CC(C)C(O)C(O)C1O` (stereo not drawn), in assay [3], 0.7 µM corresponded to half-maximal inhibition (IC50) and the affinity corresponds to a Ki of 0.11 µM. In assay [4], this compound returned an IC50 of 1.5 µM and a Ki of 3.2 µM.
For the compound `CCCCCCCCCCN[C@H]1CC(C)[C@@H](O)C(O)[C@@H]1O` (stereo partly drawn), the IC50 stood at 1 µM in assay [3] and 16.6 µM in assay [4].
As to `CC1C[C@H](NCCCCc2ccccc2)[C@@H](O)C(O)[C@@H]1O` (stereo partly drawn), the IC50 was 2.4 µM in assay [3] and 10.2 µM in assay [4].
Turning to `CC1CC(NCCCCc2ccccc2)C(O)C(O)C1O` (stereo not drawn), in assay [3], the half-maximal inhibitory concentration (IC50) is 0.9 µM and affinity was put at a Ki of 0.046 µM. In assay [4], this compound displayed an IC50 of 1.4 µM and a Ki of 1.2 µM.
